Key:
[1] = tested on: phosphorylated c-jun (p-cjun); experiment: Inhibition of kainic acid induced phospho-cJun upregulation in mice hippocampi; format: in vivo
Procedure: Female, FVB/N mice (Taconic) were treated by oral gavage (PO) with one 300 mg/kg dose of N-(4-chloro-3-(1H-1,2,4-triazol-5-yl)thiophen-2-yl)-2-(isoquinolin-5-yl)acetamide or vehicle (0.9% saline) at a 5 ml/kg dose volume. Control animals were dosed with vehicle. Thirty minutes later animals were treated interperitoneally with 25 mg/kg of kainic acid or saline at a 10 ml/kg dose volume. Kainic acid was formulated in 0.9% saline. Four hours after kainic acid administration animals were euthanized by carbon dioxide and were transcardially perfused with 0.9% saline. Brains were removed, and separated into left and right hemispheres. The hippocampus was dissected from the right hemisphere, frozen on dry ice and kept at −80° C. until used for quantitation of p-cjun levels.
Preweighed hippocampus tissues were homogenized in cold cell extraction buffer (CEB) containing 1% Triton X-100, 0.1% SDS, 0.5% deoxycholate, 20 mM Na4P2O7, 2 mM Na3VO4, 0.1% SDS and protease inhibitors (PI, 2 mg/mL aprotinin and 1 mg/mL leupeptin) at a ratio of 9:1 CEB to wet tissue weight. Homogenized samples were analyzed using PathScan Phospho-c-Jun (Ser63) Sandwich ELISA Kit II from Cell Signaling Technology. Samples were diluted 1:10 in sample diluent provided in the kit. An 8-point standard curve was prepared by diluting a 10 ng/mL phos-c-Jun standard 1:3 in 10% CEB/PI in sample diluent. Samples and standards were added at 100 μL per well to prewetted ELISA plates which contain a phos-c-jun (ser63)-specific rabbit monoclonal capture antibody and incubated overnight at 4° C. The plate was then allowed to warm to room temperature and washed three times using TBS+0.05% Tween 20 (TTBS). To each well were added 100 μL of a mouse monoclonal c-Jun detection antibody and the plate was incubated at 37° C. for 1 hour. The plate was washed three times in TTBS, then 100 μL per well of an anti-mouse IgG HRP-linked antibody was added. […] The colorimetric reaction was read using a Molecular Devices Spectramax plate reader and sample data was calculated from the standard curve fit to a 4-parameter function.

JNK3 = JNK3 (Homo sapiens (Human), UniProt P53779); experiment: JNK3 TR-FRET kinase assay (Example 14); format: biochemical; details: procedures of Example 14 (TR-FRET)
How it was run: (§1)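 Two TR-FRET formats were used for each JNK isoform. In the direct one, preactivated aJNK phosphorylated EPIW-1 at about 1 mM final ATP (RT, 15 min). Both were EDTA-quenched and read by HTRF.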

JNK2 = JNK2 (Homo sapiens (Human), UniProt P45984); experiment: JNK2 TR-FRET kinase assay (Example 14); format: biochemical; details: procedures of Example 14 (TR-FRET)
How it was run: as §1

JNK1 = JNK1 (Homo sapiens (Human), UniProt P45983); experiment: JNK1 TR-FRET kinase assay (Example 14); format: biochemical; details: procedures of Example 14 (TR-FRET)
How it was run: as §1

JNK3, sequence (P53779 whole entry, species assumed, canonical isoform): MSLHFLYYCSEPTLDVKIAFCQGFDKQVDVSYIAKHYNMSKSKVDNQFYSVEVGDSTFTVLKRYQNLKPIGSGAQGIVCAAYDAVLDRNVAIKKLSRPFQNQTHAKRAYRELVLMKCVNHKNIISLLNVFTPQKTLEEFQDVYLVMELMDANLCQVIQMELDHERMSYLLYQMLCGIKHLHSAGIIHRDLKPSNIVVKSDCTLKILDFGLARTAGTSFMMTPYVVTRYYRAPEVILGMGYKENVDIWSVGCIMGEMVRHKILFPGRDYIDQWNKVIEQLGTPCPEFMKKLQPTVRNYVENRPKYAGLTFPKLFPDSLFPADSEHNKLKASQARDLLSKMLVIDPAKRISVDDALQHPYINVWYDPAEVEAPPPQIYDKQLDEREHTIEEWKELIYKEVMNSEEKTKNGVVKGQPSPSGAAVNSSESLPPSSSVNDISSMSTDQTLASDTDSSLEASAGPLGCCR
JNK2, sequence (P45984 whole entry, species assumed): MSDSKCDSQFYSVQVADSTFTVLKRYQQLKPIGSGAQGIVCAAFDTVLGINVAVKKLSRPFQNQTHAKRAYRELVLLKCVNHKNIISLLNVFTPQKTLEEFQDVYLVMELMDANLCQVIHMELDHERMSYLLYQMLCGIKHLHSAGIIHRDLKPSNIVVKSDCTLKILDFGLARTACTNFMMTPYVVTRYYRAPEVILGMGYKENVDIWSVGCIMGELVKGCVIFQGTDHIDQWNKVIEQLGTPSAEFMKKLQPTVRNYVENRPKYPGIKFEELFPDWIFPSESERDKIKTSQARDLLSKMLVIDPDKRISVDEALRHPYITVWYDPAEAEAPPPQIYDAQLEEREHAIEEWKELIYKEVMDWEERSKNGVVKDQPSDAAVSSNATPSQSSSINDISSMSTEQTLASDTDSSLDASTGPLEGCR
JNK1, sequence (P45983 other isoform, or with tags, fused parts or gaps isoform P45983-2, species assumed): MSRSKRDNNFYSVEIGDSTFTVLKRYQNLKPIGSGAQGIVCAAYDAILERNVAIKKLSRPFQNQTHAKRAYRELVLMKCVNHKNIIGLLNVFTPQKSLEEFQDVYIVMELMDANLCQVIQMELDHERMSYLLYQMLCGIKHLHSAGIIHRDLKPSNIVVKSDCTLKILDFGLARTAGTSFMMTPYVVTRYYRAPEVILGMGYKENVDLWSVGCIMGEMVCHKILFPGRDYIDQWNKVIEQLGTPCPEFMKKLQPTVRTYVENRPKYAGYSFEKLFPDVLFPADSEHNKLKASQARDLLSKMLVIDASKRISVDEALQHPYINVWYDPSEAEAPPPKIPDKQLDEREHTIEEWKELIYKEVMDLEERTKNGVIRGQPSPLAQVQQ

## O=C(Cc1cccc2cnccc12)Nc1scc(Cl)c1-c1ncn[nH]1 [N-(4-chloro-3-(1H-1,2,4-triazol-5-yl)thiophen-2-yl)-2-(isoquinolin-5-yl)acetamide]
[1]; FVB mice, 300 mg/kg, 4 hours after treatment with kainic acid, statistically significant (unpaired t-test)
  reduction of p-cjun in the hippocampus: 51%
[1]; female FVB/N mice, 300 mg/kg PO 30 min before 25 mg/kg kainic acid i.p., hippocampus 4 h after kainic acid
  p-cJun Mean: 0.927 ng/mL
[1]; female FVB/N mice, 300 mg/kg PO, hippocampus 4 h after kainic acid, relative to kainic acid + vehicle group
  p-cJun % of Vehicle: 49.2%
JNK3
  IC50: < 0.1 µM
JNK2
  IC50: < 0.1 µM
JNK1
  IC50: < 0.1 µM

## Cn1cnc(-c2c(C#N)csc2NC(=O)CN2C(=O)CCc3ncccc32)n1 [N-(4-cyano-3-(1-methyl-1H-1,2,4-triazol-3-yl)thiophen-2-yl)-2-(2-oxo-3,4-dihydro-1,5-naphthyridin-1(2H)-yl)acetamide]
JNK3
  IC50: < 0.1 µM
JNK2
  IC50: < 0.1 µM
JNK1
  IC50: < 0.1 µM

## Cn1cnc(-c2c(C#N)csc2NC(=O)Cc2cccc3ncccc23)n1 [N-(4-cyano-3-(1-methyl-1H-1,2,4-triazol-3-yl)thiophen-2-yl)-2-(quinolin-5-yl)acetamide]
JNK3
  IC50: < 0.1 µM
JNK2
  IC50: < 0.1 µM
JNK1
  IC50: < 0.1 µM

## N#Cc1csc(NC(=O)Cn2c(=O)ccc3cc(C(F)(F)F)ccc32)c1-n1ccnn1 [N-(4-cyano-3-(1H-1,2,3-triazol-1-yl)thiophen-2-yl)-2-(2-oxo-6-(trifluoromethyl)quinolin-1(2H)-yl)acetamide]
JNK3
  IC50: 0.1 to 10 µM
JNK2
  IC50: 0.1 to 10 µM
JNK1
  IC50: 0.1 to 10 µM

## N#Cc1csc(NC(=O)CN2C(=O)CCc3ncccc32)c1-c1nc[nH]n1 [N-(4-cyano-3-(1H-1,2,4-triazol-3-yl)thiophen-2-yl)-2-(2-oxo-3,4-dihydro-1,5-naphthyridin-1(2H)-yl)acetamide]
JNK3
  IC50: < 0.1 µM
JNK2
  IC50: < 0.1 µM
JNK1
  IC50: < 0.1 µM

## N#Cc1csc(NC(=O)CN2C(=O)CCc3ccccc32)c1-c1ncn[nH]1 [N-(4-cyano-3-(1H-1,2,4-triazol-5-yl)thiophen-2-yl)-2-(2-oxo-3,4-dihydroquinolin-1(2H)-yl)acetamide]
JNK3
  IC50: < 0.1 µM
JNK2
  IC50: < 0.1 µM
JNK1
  IC50: < 0.1 µM

## N#Cc1csc(NC(=O)Cc2cccc3cnccc23)c1-c1ncn[nH]1 [N-(4-cyano-3-(1H-1,2,4-triazol-5-yl)thiophen-2-yl)-2-(isoquinolin-5-yl)acetamide]
JNK3
  IC50: < 0.1 µM
JNK2
  IC50: < 0.1 µM
JNK1
  IC50: < 0.1 µM

## N#Cc1csc(NC(=O)Cn2c(=O)ccc3cc(C(F)(F)F)ccc32)c1-n1nccn1 [N-(4-cyano-3-(2H-1,2,3-triazol-2-yl)thiophen-2-yl)-2-(2-oxo-6-(trifluoromethyl)quinolin-1(2H)-yl)acetamide]
JNK3
  IC50: < 0.1 µM
JNK2
  IC50: < 0.1 µM
JNK1
  IC50: < 0.1 µM

## N#Cc1csc(NC(=O)Cc2cccc3ncccc23)c1-c1nnc[nH]1 [N-(4-cyano-3-(4H-1,2,4-triazol-3-yl)thiophen-2-yl)-2-(quinolin-5-yl)acetamide]
JNK3
  IC50: < 0.1 µM
JNK2
  IC50: < 0.1 µM
JNK1
  IC50: < 0.1 µM

## N#Cc1csc(NC(=O)Cn2c(=O)ccc3cc(C(F)(F)F)ccc32)c1-c1ncco1 [N-(4-cyano-3-(oxazol-2-yl)thiophen-2-yl)-2-(2-oxo-6-(trifluoromethyl)quinolin-1(2H)-yl)acetamide]
JNK3
  IC50: < 0.1 µM
JNK2
  IC50: < 0.1 µM
JNK1
  IC50: < 0.1 µM

## N#Cc1csc(NC(=O)Cc2cccc3ncccc23)c1-c1cnccn1 [N-(4-cyano-3-(pyrazin-2-yl)thiophen-2-yl)-2-(quinolin-5-yl)acetamide]
JNK3
  IC50: < 0.1 µM
JNK2
  IC50: 0.1 to 10 µM
JNK1
  IC50: < 0.1 µM

## N#Cc1csc(NC(=O)CN2C(=O)CCc3ncccc32)c1-c1nccs1 [N-(4-cyano-3-(thiazol-2-yl)thiophen-2-yl)-2-(2-oxo-3,4-dihydro-1,5-naphthyridin-1(2H)-yl)acetamide]
JNK3
  IC50: < 0.1 µM
JNK2
  IC50: < 0.1 µM
JNK1
  IC50: < 0.1 µM

## N#Cc1csc(NC(=O)Cn2c(=O)ccc3cc(C(F)(F)F)ccc32)c1-c1nccs1 [N-(4-cyano-3-(thiazol-2-yl)thiophen-2-yl)-2-(2-oxo-6-(trifluoromethyl)quinolin-1(2H)-yl)acetamide]
JNK3
  IC50: < 0.1 µM
JNK2
  IC50: < 0.1 µM
JNK1
  IC50: < 0.1 µM

## N#Cc1csc(NC(=O)Cn2c(=O)ccc3cc(C(F)(F)F)ccc32)c1-c1cscn1 [N-(4-cyano-3-(thiazol-4-yl)thiophen-2-yl)-2-(2-oxo-6-(trifluoromethyl)quinolin-1(2H)-yl)acetamide]
JNK3
  IC50: < 0.1 µM
JNK2
  IC50: < 0.1 µM
JNK1
  IC50: < 0.1 µM

## N#Cc1csc(NC(=O)Cn2c(=O)ccc3cc(C(F)(F)F)ccc32)c1-c1cncs1 [N-(4-cyano-3-(thiazol-5-yl)thiophen-2-yl)-2-(2-oxo-6-(trifluoromethyl)quinolin-1(2H)-yl)acetamide]
JNK3
  IC50: 0.1 to 10 µM
JNK2
  IC50: 0.1 to 10 µM
JNK1
  IC50: 0.1 to 10 µM

## Cc1csc(NC(=O)Cc2ccc(OCCCN3CCCCC3)cc2)c1-c1ncn[nH]1 [N-(4-methyl-3-(1H-1,2,4-triazol-5-yl)thiophen-2-yl)-2-(4-(3-(piperidin-1-yl)propoxy)phenyl)acetamide]
JNK3
  IC50: 0.1 to 10 µM
JNK2
  IC50: 0.1 to 10 µM
JNK1
  IC50: 0.1 to 10 µM

## Cc1csc(NC(=O)Cc2cccc3nccnc23)c1-c1ncn[nH]1 [N-(4-methyl-3-(1H-1,2,4-triazol-5-yl)thiophen-2-yl)-2-(quinoxalin-5-yl)acetamide]
JNK3
  IC50: 0.1 to 10 µM
JNK2
  IC50: 0.1 to 10 µM
JNK1
  IC50: 0.1 to 10 µM

## Cc1noc(-c2c(C)csc2NC(=O)Cc2cccc3ccccc23)n1 [N-(4-methyl-3-(3-methyl-1,2,4-oxadiazol-5-yl)thiophen-2-yl)-2-(naphthalen-1-yl)acetamide]
JNK3
  IC50: 0.1 to 10 µM
JNK2
  IC50: 0.1 to 10 µM
JNK1
  IC50: 0.1 to 10 µM

## Cc1n[nH]c(-c2c(C)csc2NC(=O)CN2C(=O)CCc3ccccc32)n1 [N-(4-methyl-3-(3-methyl-1H-1,2,4-triazol-5-yl)thiophen-2-yl)-2-(2-oxo-3,4-dihydroquinolin-1(2H)-yl)acetamide]
JNK3
  IC50: < 0.1 µM
JNK2
  IC50: < 0.1 µM
JNK1
  IC50: < 0.1 µM

## Cc1n[nH]c(-c2c(C)csc2NC(=O)Cc2ccc(OCCCN3CCCCC3)cc2)n1 [N-(4-methyl-3-(3-methyl-1H-1,2,4-triazol-5-yl)thiophen-2-yl)-2-(4-(3-(piperidin-1-yl)propoxy)phenyl)acetamide]
JNK3
  IC50: 0.1 to 10 µM
JNK2
  IC50: 0.1 to 10 µM
JNK1
  IC50: 0.1 to 10 µM

## Cc1n[nH]c(-c2c(C)csc2NC(=O)Cc2cccc3ncccc23)n1 [N-(4-methyl-3-(3-methyl-1H-1,2,4-triazol-5-yl)thiophen-2-yl)-2-(quinolin-5-yl)acetamide]
JNK3
  IC50: < 0.1 µM
JNK2
  IC50: 0.1 to 10 µM
JNK1
  IC50: < 0.1 µM

## Cc1n[nH]c(-c2c(C)csc2NC(=O)Cc2cccc3nccnc23)n1 [N-(4-methyl-3-(3-methyl-1H-1,2,4-triazol-5-yl)thiophen-2-yl)-2-(quinoxalin-5-yl)acetamide]
JNK3
  IC50: 0.1 to 10 µM
JNK2
  IC50: 0.1 to 10 µM
JNK1
  IC50: 0.1 to 10 µM

## O=C(Cn1c(=O)ccc2cc(C(F)(F)F)ccc21)Nc1sc(Cl)cc1-c1ncn[nH]1 [N-(5-chloro-3-(1H-1,2,4-triazol-5-yl)thiophen-2-yl)-2-(2-oxo-6-(trifluoromethyl)quinolin-1(2H)-yl)acetamide]
JNK3
  IC50: 0.1 to 10 µM
JNK2
  IC50: 0.1 to 10 µM
JNK1
  IC50: < 0.1 µM
